Measured values from patent publication US20240279205A1, “NOVEL BENZIMIDAZOLE DERIVATIVE” (Carna Biosciences, Inc., priority 2020, published 2024).
Where a name gives a salt, the structure may show the parent alone.

molecular target: T1, human STING (hSTING) (Homo sapiens, UniProt Q86WV6); assay: Inhibition test of intracellular human STING (hSTING) pathway using SEAP reporter cells (HEK-Blue ISG), stimulation with Compound 3; type: cell-based; design: hSTING inhibitory activity: scale not given here; conditions: Compound 3 10 nM stimulation, 21 hours
T1 construct: host or cells: HEK-Blue ISG cells (HEK293-derived SEAP reporter line)
T1 sequence (Q86WV6 whole entry H232R): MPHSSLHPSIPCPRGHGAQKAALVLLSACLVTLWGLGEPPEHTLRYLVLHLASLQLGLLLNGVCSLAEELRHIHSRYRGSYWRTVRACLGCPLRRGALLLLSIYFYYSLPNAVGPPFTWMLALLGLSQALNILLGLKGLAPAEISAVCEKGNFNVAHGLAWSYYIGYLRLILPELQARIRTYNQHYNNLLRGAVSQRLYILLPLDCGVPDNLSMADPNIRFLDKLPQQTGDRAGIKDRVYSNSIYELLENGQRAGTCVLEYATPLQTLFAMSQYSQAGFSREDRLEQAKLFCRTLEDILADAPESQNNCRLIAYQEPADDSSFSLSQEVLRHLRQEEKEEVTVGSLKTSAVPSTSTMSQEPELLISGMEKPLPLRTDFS
Summary of the method: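 IC50 derived by regressing inhibition rate against log compound concentration (0.1 to 10 μM final, added 1 h before agonist), with 0% and 100% set by wells without and with 10 nM Compound 3. SEAP colour reaction read after 21 h stimulation of HEK-Blue ISG reporter cells.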

| SMILES | hSTING inhibitory activity |
| --- | --- |
| Fc1cc(C2CCOCC2)cc2nc(Nc3c[nH]c4ccc(Cl)nc34)[nH]c12 [Embodiment 175, N-(5-Chloro-1H-pyrrolo[3,2-b]pyridin-3-yl)-7-fluoro-5-(tetrahydro-2H-pyran-4-yl)-1H-benzo[d]imidazol-2-amine] | * * |
| Fc1cc2[nH]c(Nc3c[nH]c4ccc(Cl)nc34)nc2cc1Oc1ccccc1 [Embodiment 193, N-(5-Chloro-1H-pyrrolo[3,2-b]pyridin-3-yl)-6-fluoro-5-phenoxy-1H-benzo[d]imidazol-2-amine] | * * |
| Cn1c(Nc2c[nH]c3ccc(Cl)nc23)nc2cc(F)c(Oc3ccccc3)cc21 [Embodiment 194, N-(5-Chloro-1H-pyrrolo[3,2-b]pyridin-3-yl)-5-fluoro-1-methyl-6-phenoxy-1H-benzo[d]imidazol-2-amine] | * * |
| Cn1c(Nc2c[nH]c3ccc(Cl)cc23)nc2cc(C3CCOCC3)ccc21 [Embodiment 197, N-(5-Chloro-1H-indol-3-yl)-1-methyl-5-(tetrahydro-2H-pyran-4-yl)-1H-benzo[d]imidazole-2-amine formate] | * * |
| C[C@@H](O)Cn1c(Nc2c[nH]c3ccc(Cl)cc23)nc2cc(C(F)(F)F)ccc21 [Embodiment 239, (R)-1-{2-[(5-chloro-1H-indol-3-yl)amino]-5-(trifluoromethyl)-1H-benzo[d]imidazol-1-yl}propan-2-oar] | * * |
| C[C@H](O)Cn1c(Nc2c[nH]c3ccc(Cl)cc23)nc2cc(C(F)(F)F)ccc21 [Embodiment 243, (S)-1-{2-[(5-chloro-1H-indol-3-yl)amino]-5-(trifluoromethyl)-1H-benzo[d]imidazol-1-yl}propan-2-oar] | * * |
| CNn1c(Nc2c[nH]c3ccc(Cl)cc23)nc2cc(C(F)(F)F)cc(F)c21 [Embodiment 271, N2-(5-Chloro-1H-indol-3-yl)-7-fluoro-N1-methyl-5-(trifluoromethyl)-1H-benzo[d]imidazole-1,2-diamine] | * * * |
| CNn1c(Nc2c[nH]c3ccc(F)c(F)c23)nc2cc(C(F)(F)F)cc(F)c21 [Embodiment 272, N2-(4,5-difluoro-1H-indol-3-yl)-7-fluoro-N1-methyl-5-(trifluoromethyl)-1H-benzo[d]imidazole-1,2-diamine] | * * * |
| CNn1c(Nc2c[nH]c3cc(F)c(F)cc23)nc2cc(C(F)(F)F)cc(F)c21 [Embodiment 273, N2-(5,6-difluoro-1H-indol-3-yl)-7-fluoro-N1-methyl-5-(trifluoromethyl)-1H-benzo[d]imidazole-1,2-diamine] | * * * |
| Cn1c(Nc2c[nH]c3ccc(Cl)cc23)nc2cc(C(F)(F)F)c(F)c(F)c21 [Embodiment 274, N-(5-Chloro-1H-indol-3-yl)-6,7-difluoro-1-methyl-5-(trifluoromethyl)-1H-benzo[d]imidazol-2-amine] | * * * |
| CN(C)n1c(Nc2c[nH]c3ccc(Cl)cc23)nc2cc(C(F)(F)F)c(F)cc21 [Embodiment 275, N2-(5-Chloro-1H-indol-3-yl)-6-fluoro-N1,N1-dimethyl-5-(trifluoromethyl)-1H-benzo[d] imidazole-1,2-didiamine] | * * * |
| Cc1c(C(F)(F)F)ccc2c1nc(Nc1c[nH]c3ccc(Cl)cc13)n2C [Embodiment 276, N-(5-Chloro-1H-indol-3-yl)-1,4-dimethyl-5-(trifluoromethyl)-1H-benzo[d]imidazol-2-amine] | * * * |

same assay, conditions: Compound 3 10 nM stimulation, 21 hours, read-out: hSTING inhibitory activity

| SMILES | IC50 [µM] |
| --- | --- |
| Cc1c(F)ccc2[nH]c(Nc3c[nH]c4ccc(Cl)nc34)nc12 [Embodiment 176, N-(5-Chloro-1H-pyrrolo[3,2-b]pyridin-3-yl)-5-fluoro-4-methyl-1H-benzo[d]imidazol-2-amine formate] | 1 to 10 |
| O=[N+]([O-])c1cc2[nH]c(Nc3c[nH]c4ccc(Cl)nc34)nc2cc1F [Embodiment 177, N-(5-Chloro-1H-pyrrolo[3,2-b]pyridin-3-yl)-5-fluoro-6-nitro-1H-benzo[d]imidazol-2-amine] | 1 to 10 |
| COCCn1c(Nc2c[nH]c3ccc(Cl)nc23)nc2ccc(C(F)(F)F)cc21 [Embodiment 179, N-(5-chloro-1H-pyrrolo[3,2-b]pyridin-3-yl)-1-(2-methoxyethyl)-6-(trifluoromethyl)-1H-benzo[d]imidazol-2-amine] | ≥ 10 |
| COCCn1c(Nc2c[nH]c3ccc(Cl)nc23)nc2cccc(C(F)(F)F)c21 [Embodiment 180, N-(5-chloro-1H-pyrrolo[3,2-b]pyridin-3-yl)-1-(2-methoxyethyl)-7-(trifluoromethyl)-1H-benzo[d]imidazol-2-amine] | ≥ 10 |
| COCCn1c(Nc2c[nH]c3ccc(Cl)nc23)nc2cc(-c3ccccc3)ccc21 [Embodiment 181] | ≥ 10 |
| COCCn1c(Nc2c[nH]c3ccc(Cl)nc23)nc2ccc(-c3ccccc3)cc21 [Embodiment 182] | ≥ 10 |
| Cn1c(Nc2c[nH]c3ccc(Cl)nc23)nc2c(F)c(F)ccc21 [Embodiment 183, N-(5-Chloro-1H-pyrrolo[3,2-b]pyridin-3-yl)-4,5-difluoro-1-methyl-1H-benzo[d]imidazol-2-amine] | ≥ 10 |
| Cn1c(Nc2c[nH]c3ccc(Cl)nc23)nc2ccc(F)c(F)c21 [Embodiment 184, N-(5-Chloro-1H-pyrrolo[3,2-b]pyridin-3-yl)-6,7-difluoro-1-methyl-1H-benzo[d]imidazol-2-amine] | ≥ 10 |
| Cn1c(Nc2c[nH]c3ccc(Cl)nc23)nc2cc(Oc3cccnc3)ccc21 [Embodiment 198, N-(5-chloro-1H-pyrrolo[3,2-b]pyridin-3-yl)-1-methyl-5-(pyridin-3-yloxy)-1H-benzo[d]imidazole-2-amine] | ≥ 10 |
| COCCn1c(Nc2c[nH]c3ccc(Cl)nc23)nc2c(F)c(F)ccc21 [Embodiment 200, N-(5-chloro-1H-pyrrolo[3,2-b]pyridin-3-yl)-4,5-difluoro-1-(2-methoxyethyl)-1H-benzo[d] imidazole-2-amine] | ≥ 10 |
| COCCn1c(Nc2c[nH]c3ccc(Cl)nc23)nc2ccc(F)c(F)c21 [Embodiment 201, N-(5-chloro-1H-pyrrolo[3,2-b]pyridin-3-yl)-6,7-difluoro-1-(2-methoxyethyl)-1H-benzo[d]imidazole-2-amine] | ≥ 10 |
| COCCn1c(Nc2c[nH]c3ccc(Cl)nc23)nc2c(F)cc(F)cc21 [Embodiment 202, N-(5-chloro-1H-pyrrolo[3,2-b]pyridin-3-yl)-4,6-difluoro-1-(2-methoxyethyl)-1H-benzo[d]imidazole-2-amine] | ≥ 10 |
| Cn1c(Nc2c[nH]c3ccc(Cl)nc23)nc2c(F)cc(F)cc21 [Embodiment 203, N-(5-Chloro-1H-pyrrolo[3,2-b]pyridin-3-yl)-4,6-difluoro-1-methyl-1H-benzo[d]imidazol-2-amine] | ≥ 10 |
| Cn1c(Nc2c[nH]c3ccc(Cl)nc23)nc2cc(F)cc(F)c21 [Embodiment 204, N-(5-Chloro-1H-pyrrolo[3,2-b]pyridin-3-yl)-5,7-difluoro-1-methyl-1H-benzo[d]imidazol-2-amine] | ≥ 10 |
| COCCn1c(Nc2c[nH]c3ccc(Cl)nc23)nc2cc(F)cc(F)c21 [Embodiment 205, N-(5-chloro-1H-pyrrolo[3,2-b]pyridin-3-yl)-5,7-difluoro-1-(2-methoxyethyl)-1H-benzo[d]imidazole-2-amine] | ≥ 10 |
| COCCn1c(Nc2c[nH]c3ccc(Cl)nc23)nc2cc(Oc3cccnc3)ccc21 [Embodiment 206, N-(5-chloro-1H-pyrrolo[3,2-b]pyridin-3-yl)-1-(2-methylxhetyl)-5-(pyridin-3-yloxy)-1H-benzo[d] imidazol-2-amine] | ≥ 10 |
| COCCn1c(Nc2c[nH]c3ccc(Cl)nc23)nc2ccc(Oc3cccnc3)cc21 [Embodiment 207, N-(5-Chloro-1H-pyrrolo[3,2-b]pyridin-3-yl)-1-(2-methylxhetyl)-6-(pyridin-3-yloxy)-1H-benzo[d] imidazol-2-amine] | ≥ 10 |
| CC(C)Oc1ccc2nc(Nc3c[nH]c4ccc(Cl)nc34)n(C)c2c1 [Embodiment 209, N-(5-Chloro-1H-pyrrolo[3,2-b]pyridin-3-yl)-6-isopropoxy-1-methyl-1H-benzo[d]imidazol-2-amine] | 1 to 10 |
| Cn1c(Nc2c[nH]c3ccc(Cl)nc23)nc2ccc(OC(F)(F)F)cc21 [Embodiment 211, N-(5-Chloro-1H-pyrrolo[3,2-b]pyridin-3-yl)-1-methyl-6-(trifluoromethoxy)-1H-benzo[d] imidazol-2-amine] | ≥ 10 |
| Cn1cnc(-n2c(Nc3c[nH]c4ccc(Cl)cc34)nc3cc(C(F)(F)F)ccc32)c1 [Embodiment 227, N-(5-Chloro-1H-indol-3-yl)-1-(1-methyl-1H-imidazol-4-yl)-5-(trifluoromethyl)-1H-benzo[d] imidazole-2-amine] | ≥ 10 |
| CN(C)C(=O)Cn1c(Nc2c[nH]c3ccc(Cl)cc23)nc2cc(C(F)(F)F)ccc21 [Embodiment 229, 2-{2-[(5-chloro-1H-indol-3-yl)amino]-5-(trifluoromethyl)-1H-benzo [d]imidazol-1-yl}-N,N-dimethyl Acetamide] | ≥ 10 |
| CS(=O)(=O)CCn1c(Nc2c[nH]c3ccc(Cl)cc23)nc2cc(C(F)(F)F)ccc21 [Embodiment 230, N-(5-Chloro-1H-indol-3-yl)-1-[2-(methylsulfonyl)ethyl]-5-(trifluoromethyl)-1H-benzo[d] imidazol-2-amine] | 1 to 10 |
| CC(C)(O)Cn1c(Nc2c[nH]c3ccc(Cl)cc23)nc2cc(C(F)(F)F)ccc21 [Embodiment 234, 1-{2-[(5-chloro-1H-indol-3-yl)amino]-5-(trifluoromethyl)-1H-benzo [d]imidazol-1-yl}-2-methylpropane-2-oar] | 1 to 10 |
| FC(F)(F)c1ccc2c(c1)nc(Nc1c[nH]c3ccc(Cl)cc13)n2N1CCOCC1 [Embodiment 235, N-(5-Chloro-1H-indol-3-yl)-1-morpholino-5-(trifluoromethyl)-1H-benzo[d]imidazol-2-amine] | 1 to 10 |
